Experiment [1] has as its system Leishmania donovani. Put plainly: The compound was evaluated in vitro for its inhibitory affect against Leishmania donovani; (32.6 mM Sb). Format: functional. The conditions noted are these: read-out: ED50 (the source's name).
Experiment [2] has as its target Trypanothione reductase (Trypanosoma cruzi) (UniProt P28593). Put plainly: The compound was evaluated in vitro for its inhibitory affect against trypanothione reductase. Further details: concentration or dose not given beside the values. The conditions noted are these: concentration not given here.
For experiment [3], the system named is Trypanosoma cruzi. Put plainly: The compound was evaluated in vitro for its inhibitory affect against Trypanosoma cruzi. Format: functional. The conditions noted are these: read-out: ED50 (the source's name).
Experiment [4] is described as follows: Cytotoxicity against peritoneal macrophages of female CD1 mice culturing amastigote stages of Trypanosoma cruzi. Format: functional. The note with it: Mus musculus.
Experiment [5] is described as follows: Cytotoxicity against peritoneal macrophages of female CD1 mice culturing amastigote stages of Leishmania donovani. The class given is functional. The note with it: Mus musculus.
The test system of experiment [6] is Trypanosoma brucei. The experiment is described as follows: The compound was evaluated in vitro for its inhibitory affect against Trypanosoma brucei; (8.24 mM Sb). The class given is functional. The note with it: read-out: ED50 (the source's name).
Experiment [7] relates to Trypanosoma cruzi. Put plainly: In vitro inhibitory affect against Trypanosoma cruzi; (32.7 mM Sb). Format: functional. The note with it: read-out: ED50 (the source's name).
Experiment [8] deals with Leishmania donovani. Put plainly: The compound was evaluated in vitro for its inhibitory affect against Leishmania donovani. Format: functional. The note with it: read-out: ED50 (the source's name).
Experiment [9] concerns Trypanosoma brucei. Put plainly: The compound was evaluated in vitro for its inhibitory affect against Trypanosoma brucei; (0.14 mM Sb). Format: functional. The note with it: read-out: ED50 (the source's name).
The subject of experiment [10] is Trypanosoma brucei. Put plainly: The compound was evaluated in vitro for its inhibitory affect against Trypanosoma brucei; (7.58 mM Sb). Format: functional. The conditions noted are these: read-out: ED50 (the source's name).
Experiment [11] relates to Trypanosoma brucei. Put plainly: The compound was evaluated in vitro for its inhibitory affect against Trypanosoma brucei; (0.098 mM Sb). Format: functional. The conditions noted are these: read-out: ED50 (the source's name).
In experiment [12] the test system is Trypanosoma brucei. The experiment is described as follows: The compound was evaluated in vitro for its inhibitory affect against Trypanosoma brucei; (9.66 mM Sb). The class given is functional. The conditions noted are these: read-out: ED50 (the source's name).
Experiment [13] deals with Trypanosoma brucei. Put plainly: The compound was evaluated in vitro for its inhibitory affect against Trypanosoma brucei; (0.03 mM Sb). The class given is functional. The conditions noted are these: read-out: ED50 (the source's name).
The test system of experiment [14] is Leishmania donovani. Put plainly: The compound was evaluated in vitro for its inhibitory affect against Leishmania donovani; (0.55 mM Sb). Format: functional. The conditions noted are these: read-out: ED50 (the source's name).
The test system of experiment [15] is Trypanosoma brucei. Put plainly: The compound was evaluated in vitro for its inhibitory affect against Trypanosoma brucei; (0.02 mM Sb). The class given is functional. The conditions noted are these: read-out: ED50 (the source's name).
The subject of experiment [16] is Trypanosoma cruzi. Put plainly: The compound was evaluated in vitro for its inhibitory affect against Trypanosoma cruzi; (0.48 mM Sb). Format: functional. The note with it: read-out: ED50 (the source's name).

≈ marks a conversion by molar mass, not a printed value.

Sequence of Trypanothione reductase (Trypanosoma cruzi) (P28593 whole entry, looked up): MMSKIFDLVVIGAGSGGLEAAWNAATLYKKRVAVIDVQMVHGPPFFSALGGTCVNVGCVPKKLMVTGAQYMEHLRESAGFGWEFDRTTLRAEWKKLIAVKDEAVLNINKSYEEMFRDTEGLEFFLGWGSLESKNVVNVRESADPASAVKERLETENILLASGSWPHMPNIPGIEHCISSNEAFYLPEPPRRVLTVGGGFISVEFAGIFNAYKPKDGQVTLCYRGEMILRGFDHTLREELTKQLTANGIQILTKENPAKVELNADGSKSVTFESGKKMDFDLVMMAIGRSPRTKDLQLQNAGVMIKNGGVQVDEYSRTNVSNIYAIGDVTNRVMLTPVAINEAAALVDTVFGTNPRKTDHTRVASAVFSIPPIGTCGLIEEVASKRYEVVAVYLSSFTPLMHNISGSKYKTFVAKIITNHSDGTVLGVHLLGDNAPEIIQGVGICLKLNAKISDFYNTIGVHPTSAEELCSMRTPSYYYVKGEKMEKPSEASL

In the case of `CN(C)CCCNC(=O)CCc1cccc2c1Oc1c(CCC(=O)NCCCN(C)C)cccc1C2(C)C`, the values for the EC50 with Leishmania donovani [1], in the experiment with Trypanosoma cruzi [3] and in the experiment with Trypanosoma brucei [6] were 17 µg/mL (≈ 32.6 µM), above 30 µg/mL and 4.3 µg/mL (≈ 8.23 µM), respectively. Besides, the inhibition (as a rule, the percentage by which the read-out fell short of the control) in experiment [2] came out at 58%. In addition, the MIC in [4] and in [5] was above 300 µg/mL each time.

Regarding `O=C(Cn1ccnc1[N+](=O)[O-])NCc1ccccc1` [BENZNIDAZOLE], the EC50 in the experiment on Trypanosoma cruzi [7] came out at 8.5 µg/mL (≈ 32.7 µM).

`CN(C)CCCNCCCc1cccc2c1Oc1c(CCCNCCCN(C)C)cccc1C2(C)C` registered an inhibition in [2] of 63%. Besides, the EC50 is above 30 µg/mL in the experiment with Trypanosoma cruzi [3], above 30 µg/mL with Leishmania donovani [8] and 0.07 µg/mL (≈ 0.141 µM) in the experiment on Trypanosoma brucei [9]. Besides, the MIC in experiment [4] and in experiment [5] was above 30 µg/mL each time.

On to `CN(C)CCCNCc1cccc2c1Oc1c(CNCCCN(C)C)cccc1C2(C)C`, for which, in [2], the inhibition stood at 13.8%. Besides, the results for the EC50 in the experiment on Trypanosoma cruzi [3], with Leishmania donovani [8] and with Trypanosoma brucei [10] were above 30 µg/mL, above 30 µg/mL and 3.32 µg/mL (≈ 7.57 µM), respectively. The MIC in experiment [4] and in [5] was above 300 µg/mL in each case.

As to `CN(C)CCC/N=C(\S)NCCCc1cccc2c1Oc1c(CCCN/C(S)=N/CCCN(C)C)cccc1C2(C)C`, the values for the EC50 in the experiment with Trypanosoma brucei [11], in the experiment with Trypanosoma cruzi [3] and in the experiment on Leishmania donovani [8] were 0.06 µg/mL (≈ 0.0979 µM), above 30 µg/mL and above 30 µg/mL, respectively. In [2], this compound gave an inhibition of 52%. The MIC in [4] and in experiment [5] was above 30 µg/mL each time.

The compound `CN(C)CCCNC(=O)c1cccc2c1Oc1c(C(=O)NCCCN(C)C)cccc1C2(C)C` came in with an inhibition in [2] of 40%. The values for the EC50 in the experiment on Trypanosoma cruzi [3], in the experiment with Leishmania donovani [8] and with Trypanosoma brucei [12] were above 30 µg/mL, above 30 µg/mL and 4.5 µg/mL (≈ 9.64 µM), respectively. Besides, the MIC in [4] and in experiment [5] was above 300 µg/mL throughout.

Consider `N=C(N)c1ccc(OCCCCCOc2ccc(C(=N)N)cc2)cc1` [PENTAMIDINE], for which the EC50 in the experiment with Trypanosoma brucei [13] was 0.01 µg/mL (≈ 0.0294 µM).

In experiment [2], `CN(C)CCCNC(=O)c1cc(C(C)(C)C)cc2c1Oc1c(C(=O)NCCCN(C)C)cc(C(C)(C)C)cc1C2(C)C` yielded an inhibition of 28.4%. In addition, the MIC in experiment [4] and in experiment [5] was above 30 µg/mL each time. The figures for the EC50 in the experiment on Leishmania donovani [14], in the experiment on Trypanosoma brucei [15] and in the experiment on Trypanosoma cruzi [16] were 0.32 µg/mL (≈ 0.553 µM), 0.01 µg/mL (≈ 0.0173 µM) and 0.28 µg/mL (≈ 0.484 µM), respectively.

The values are drawn from ChEMBL document CHEMBL1132889, “Synthesis and evaluation of 9,9-dimethylxanthene tricyclics against trypanothione reductase, Trypanosoma brucei, Trypanosoma cruzi and Leishmania donovani” (2000).
